These results are taken from patent US7754742B2, “Imidazole carboxamides” (Eli Lilly and Company, priority 2008, dated 2010).

SMILES strings stand for the structures.

Series [1] deals with T1, human mGluR2 receptor (Homo sapiens, UniProt Q14416).
T1 construct: expressed in transfected cells; stably expresses human mGluR2, co-transfected with rat EAAT1 and Galpha15
Kind of series: Functional in vitro activity at human mGluR2 receptor (FLIPR calcium response, potentiator mode). In kind it is cell-based. Conditions: relative EC50; potentiation of glutamate EC10 response; cells expressing human mGluR2, rat EAAT 1 and Gα15.
Source text: Functional in vitro activity at human mGluR2 receptor Cell lines stably expressing the human mGluR2 receptor (see for example Desai, Burnett, Mayne, Schoepp, Mol. Pharmacol. 48, 648-657, 1995) co-transfected with the rat glutamate transporter EAAT 1 (Excitatory Amino Acid Transporter 1) and the Gα15 subunit were used for these studies. The expression of Gα15 allows this Gi-coupled receptors to couple to phospholipase C, resulting in the ability to measure receptor activation by a fluorometric calcium response assay. […]
Intracellular calcium levels were monitored before and after the addition of compounds using a Fluorometric Imaging Plate Reader (FLIPR, Molecular Devices, Union City, Calif. USA). […] The results were analyzed (GraphPad® Prism v4, Graphpad Software, LaJolla, Calif., USA) to calculate the concentrations of glutamate needed to induce the EC10 responses.
Compounds were tested in a two-addition FLIPR assay using a 10-point concentration response profile starting at a final concentration of 25 μM (agonist mode) or 12.5 μM (potentiator mode). […] After taking an initial fluorescent read of the cell plate for 5 seconds, compound was added to the cell plate (50 uL per well). […]
The maximal response was defined as that induced by ECmax (100 μM glutamate). […] Agonist effects were quantified as percent stimulation induced by compound alone relative to the maximal glutamate response. […]

The subject of series [2] is Male Fischer F-344 rats. Kind of series: Attenuation of stress-induced hyperthermia in rats. In kind it is in vivo, rat. The following applies: p.o., 4 hr pretreatment. The text has this: In many anxiety disorders, hyperthermia occurs as part of the pathology and is considered a symptom of the disease. Compounds which attenuate stress-induced hyperthermia in animals are believed to be useful in treating anxiety disorders in humans.
The conventional and minimally-invasive method for analyzing stress-induced hyperthermia is by measuring body temperature, and stress-induced increases in body temperature, via rectal thermometer. Male Fischer F-344 rats (Harlan, Indianapolis, Ind., USA) weighing between 275-350 g are tested. All animals are individually-housed with food and automated water available ad libitum, and maintained on a 12 h light/dark cycle (lights on at 06:00). Animals are fasted for approximately 12-18 hours before the experiment, which is conducted during the light phase. […]
After the pretreatment period, rats are taken individually to a brightly lit adjacent room where baseline body temperatures are determined by insertion of a rectal probe lubricated with mineral oil. Body temperature is assessed using a PHYSITEMP BAT-12® Microprobe Thermometer with a PHYSITEMP RET-2® rat rectal probe (Physitemp Instruments Inc., Clifton, N.J., USA). […] Ten minutes later a second body temperature measurement is recorded (T2). […]

Series [3] relates to Male Holtzman Sprague-Dawley rats. Kind of series: Positive differential reinforcement in rats (DRL-72 second schedule). In kind it is in vivo, rat. Conditions: reinforced responses divided by total responses, 10 mg/kg, IP, dose 0 group 0.25. An excerpt: The differential reinforcement of low rates-72 second (DRL-72) schedule has been extensively used as a screen for clinically effective antidepressant agents including imipramine, fluoxetine, paroxetine and others (Sokolowski J D, Seiden L S. 1999. The behavioral effects of sertraline, fluoxetine, and paroxetine differ on the differential-reinforcement-of-low-rate 72-second operant schedule in the rat. Psychopharm (Berl). 147(2): 153-61). […] As such, compounds which show positive result in differential reinforcement in animals are believed to be useful in treating depression in humans.
Male Holtzman Sprague-Dawley rats are water restricted (water available 20′ per day following the test session) and trained to lever press for a 4″ access to 0.025 ml of water for each correct response during daily 60 minute sessions. All testing takes place on weekdays only. After successful lever press training, rats are then required to respond under a DRL-24 second schedule, where only lever presses that are separated by 24 seconds are reinforced. Upon stable responding on a DRL-24 second schedule, rats are trained on a DRL-72 second schedule until responding stabilizes at approximately 15% efficiency. […] Response efficiency is recorded as number of reinforced responses divided by total number of responses. […]

T1 sequence (Q14416 19-872): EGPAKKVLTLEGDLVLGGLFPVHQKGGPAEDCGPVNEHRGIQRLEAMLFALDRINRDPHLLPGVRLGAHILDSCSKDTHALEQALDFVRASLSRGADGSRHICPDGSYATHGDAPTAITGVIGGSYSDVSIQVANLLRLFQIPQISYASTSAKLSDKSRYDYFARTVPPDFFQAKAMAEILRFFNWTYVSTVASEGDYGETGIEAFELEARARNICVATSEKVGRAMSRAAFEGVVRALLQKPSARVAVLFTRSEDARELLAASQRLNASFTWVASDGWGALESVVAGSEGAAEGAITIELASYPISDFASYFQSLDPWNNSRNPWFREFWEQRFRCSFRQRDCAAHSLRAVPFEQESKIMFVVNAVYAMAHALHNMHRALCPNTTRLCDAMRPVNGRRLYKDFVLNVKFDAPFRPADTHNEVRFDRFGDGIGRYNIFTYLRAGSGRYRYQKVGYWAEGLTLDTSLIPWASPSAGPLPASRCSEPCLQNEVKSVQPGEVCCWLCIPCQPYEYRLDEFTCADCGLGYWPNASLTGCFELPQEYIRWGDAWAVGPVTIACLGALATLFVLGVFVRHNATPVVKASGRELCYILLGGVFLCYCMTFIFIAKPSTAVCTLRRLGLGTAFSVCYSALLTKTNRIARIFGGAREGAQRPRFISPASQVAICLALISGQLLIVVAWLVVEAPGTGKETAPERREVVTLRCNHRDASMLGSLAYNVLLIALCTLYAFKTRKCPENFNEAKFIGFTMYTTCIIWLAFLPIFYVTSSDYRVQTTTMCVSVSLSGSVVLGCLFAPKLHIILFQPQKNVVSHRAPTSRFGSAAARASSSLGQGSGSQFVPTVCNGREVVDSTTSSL

Regarding `CC(C)C(=O)c1ccc(OCc2ccc(CNC(=O)c3cn(C)cn3)cc2)c(C(F)(F)F)c1O` [Example 1, 1-Methyl-1H-imidazole-4-carboxylic acid 4-(3-hydroxy-4-isobutyryl-2-trifluoromethyl-phenoxymethyl)-benzylamide], the melting point – broadly, the temperature of the solid-liquid transition – turned out to be 164.7 °C. In addition, in series [1], the EC50 (in general, the concentration giving half of the maximal effect) amounted to 22.5 nM. Moreover, the “T35 dose (dose producing a 35% reduction in stress-induced hyperthermic response relative to vehicle)” value in series [2] was determined as 3.2 mg/kg. Moreover, the “Response Efficiency” value in series [3] stood at 0.56.
